Measured values published in the NIST ThermoML archive (doi:10.1021/je060271a).
Values joined by “and” are separate entries in the source; they are usually repeats but may differ in a detail not shown here. Equal entries are not always repeated.

Conditions: 283.16 K, Liquid, Vibrating tube method

CCCCCC(=O)OCC(COC(=O)CCCCC)(COC(=O)CCCCC)COC(=O)CCCCC [pentaerythritol tetrahexanoate]
Conditions | mass density
94 kPa | 1004.3 kg/m3
94.1 kPa | 1004.2 kg/m3 and 1004.1 kg/m3
94.2 kPa | 1004.2 kg/m3
94.3 kPa | 1004.2 kg/m3
94.5 kPa | 1004.2 kg/m3 and 1004.1 kg/m3
94.7 kPa | 1004.1 kg/m3
94.8 kPa | 1004.2 kg/m3
95 kPa | 1004.1 kg/m3 and 1004.2 kg/m3
95.2 kPa | 1004.1 kg/m3 and 1004.3 kg/m3
95.4 kPa | 1004.2 kg/m3 and 1004.1 kg/m3
95.5 kPa | 1004.2 kg/m3 and 1004.1 kg/m3
95.9 kPa | 1004.2 kg/m3
96.1 kPa | 1004.2 kg/m3
96.9 kPa | 1004.1 kg/m3
97.1 kPa | 1004.3 kg/m3
97.4 kPa | 1004.3 kg/m3
97.8 kPa | 1004.1 kg/m3
98.1 kPa | 1004.2 kg/m3
98.3 kPa | 1004.4 kg/m3
98.5 kPa | 1004.1 kg/m3
98.6 kPa | 1004.2 kg/m3
99 kPa | 1004.2 kg/m3
99.3 kPa | 1004.2 kg/m3
99.5 kPa | 1004.2 kg/m3
99.7 kPa | 1004.2 kg/m3 and 1004.1 kg/m3
100 kPa | 1004.1 kg/m3 and 1004.2 kg/m3
100.2 kPa | 1004.2 kg/m3 and 1004.3 kg/m3
100.4 kPa | 1004.2 kg/m3
100.5 kPa | 1004.2 kg/m3
100.7 kPa | 1004.1 kg/m3
101 kPa | 1004.2 kg/m3 and 1004.1 kg/m3
101.1 kPa | 1004.2 kg/m3
101.2 kPa | 1004.3 kg/m3 and 1004.1 kg/m3
101.4 kPa | 1004.3 kg/m3 and 1004.1 kg/m3
101.7 kPa | 1004.2 kg/m3
102.2 kPa | 1004.1 kg/m3
102.4 kPa | 1004.2 kg/m3
102.6 kPa | 1004.2 kg/m3 and 1004.1 kg/m3
102.8 kPa | 1004.3 kg/m3
103.1 kPa | 1004.1 kg/m3 and 1004.2 kg/m3
103.3 kPa | 1004.2 kg/m3
103.4 kPa | 1004.1 kg/m3
103.6 kPa | 1004.1 kg/m3
104 kPa | 1004.1 kg/m3 and 1004.3 kg/m3
104.1 kPa | 1004.1 kg/m3
104.3 kPa | 1004.2 kg/m3
104.5 kPa | 1004.1 kg/m3 and 1004.2 kg/m3
105 kPa | 1004.2 kg/m3
105.2 kPa | 1004.1 kg/m3
105.3 kPa | 1004.2 kg/m3
105.5 kPa | 1004.1 kg/m3
105.8 kPa | 1004.2 kg/m3 and 1004.3 kg/m3
106 kPa | 1004.1 kg/m3
106.2 kPa | 1004.2 kg/m3
106.3 kPa | 1004.2 kg/m3
106.4 kPa | 1004.1 kg/m3
106.5 kPa | 1004.2 kg/m3
106.7 kPa | 1004.3 kg/m3
106.9 kPa | 1004.2 kg/m3
107 kPa | 1004.2 kg/m3 and 1004.1 kg/m3
107.2 kPa | 1004.1 kg/m3
107.9 kPa | 1004.2 kg/m3 and 1004.3 kg/m3
108.2 kPa | 1004.2 kg/m3
108.6 kPa | 1004.2 kg/m3
108.7 kPa | 1004.1 kg/m3 and 1004.2 kg/m3
108.9 kPa | 1004.2 kg/m3
109.4 kPa | 1004.2 kg/m3
109.6 kPa | 1004.2 kg/m3
109.8 kPa | 1004.1 kg/m3
109.9 kPa | 1004.2 kg/m3
110.1 kPa | 1004.2 kg/m3
110.3 kPa | 1004.2 kg/m3
110.5 kPa | 1004.1 kg/m3
110.6 kPa | 1004.4 kg/m3 and 1004.2 kg/m3
110.8 kPa | 1004.2 kg/m3
111 kPa | 1004.1 kg/m3
111.1 kPa | 1004.2 kg/m3
111.3 kPa | 1004.2 kg/m3
119.9 kPa | 1004.1 kg/m3
120.5 kPa | 1004.2 kg/m3
120.6 kPa | 1004.1 kg/m3
120.8 kPa | 1004.2 kg/m3
121 kPa | 1004.2 kg/m3 and 1004.1 kg/m3
121.1 kPa | 1004.3 kg/m3
126.7 kPa | 1004.3 kg/m3
126.9 kPa | 1004.4 kg/m3 and 1004.2 kg/m3
127 kPa | 1004.2 kg/m3
127.4 kPa | 1004.3 kg/m3
127.5 kPa | 1004.1 kg/m3
127.7 kPa | 1004.1 kg/m3
128.4 kPa | 1004.2 kg/m3
128.6 kPa | 1004.3 kg/m3
128.8 kPa | 1004.2 kg/m3
129.1 kPa | 1004.2 kg/m3
129.8 kPa | 1004.2 kg/m3 and 1004.1 kg/m3 and 1004.3 kg/m3
130.3 kPa | 1004.2 kg/m3
130.8 kPa | 1004.2 kg/m3 and 1004.1 kg/m3
131.2 kPa | 1004.3 kg/m3
131.5 kPa | 1004.2 kg/m3
131.9 kPa | 1004.2 kg/m3
132 kPa | 1004.3 kg/m3
132.2 kPa | 1004.3 kg/m3
132.4 kPa | 1004.1 kg/m3
132.6 kPa | 1004.2 kg/m3
132.7 kPa | 1004 kg/m3
133.1 kPa | 1004.2 kg/m3
133.4 kPa | 1004.2 kg/m3
133.8 kPa | 1004.2 kg/m3
145.2 kPa | 1004.2 kg/m3
145.6 kPa | 1004.2 kg/m3
146.1 kPa | 1004.2 kg/m3
147 kPa | 1004.2 kg/m3
148.7 kPa | 1004.2 kg/m3
149.2 kPa | 1004.2 kg/m3
149.4 kPa | 1004.2 kg/m3
149.8 kPa | 1004.4 kg/m3
150.1 kPa | 1004.3 kg/m3 and 1004.2 kg/m3
158.8 kPa | 1004.2 kg/m3
159 kPa | 1004.1 kg/m3
159.1 kPa | 1004.2 kg/m3
159.7 kPa | 1004.3 kg/m3
159.8 kPa | 1004.2 kg/m3
160.2 kPa | 1004.3 kg/m3
168.7 kPa | 1004.2 kg/m3
168.9 kPa | 1004.2 kg/m3
169.4 kPa | 1004.2 kg/m3
170.2 kPa | 1004.2 kg/m3
170.6 kPa | 1004.2 kg/m3
171.1 kPa | 1004 kg/m3
171.5 kPa | 1004.2 kg/m3
171.8 kPa | 1004.1 kg/m3
172.3 kPa | 1004.3 kg/m3
172.5 kPa | 1004.3 kg/m3
175.8 kPa | 1004.2 kg/m3
176.7 kPa | 1004.2 kg/m3
177 kPa | 1004.3 kg/m3
177.7 kPa | 1004.2 kg/m3
216.6 kPa | 1004.2 kg/m3
218.2 kPa | 1004.4 kg/m3
218.5 kPa | 1004.3 kg/m3
224.6 kPa | 1004.3 kg/m3
224.9 kPa | 1004.3 kg/m3
225.8 kPa | 1004.2 kg/m3
226.1 kPa | 1004.3 kg/m3
226.8 kPa | 1004.3 kg/m3
